Test results: paper PMC9250511, “Metabolomics-guided discovery of cytochrome P450s involved in pseudotropine-dependent biosynthesis of modified tropane alkaloids” (Nature Communications, 2022)

How the values were obtained:
[1] = molecular target: T1, AbP450-5021 (Atropa belladonna, UniProt A0A3G4RHX1); test: transient expression in N. benthamiana leaves, UHPLC/HRMS of products; format: cell-based; conditions: 1 mM substrate hydrochloride infiltrated in leaf, 2 days
T1 construct: full-length ORF in pEAQ-HT-DEST1, transiently produced in Nicotiana benthamiana leaves

[2] = molecular target: T2, AbP450-116623 (Atropa belladonna, UniProt A0A3G4RHW9); test: as above; format: cell-based; conditions: 1 mM substrate hydrochloride infiltrated in leaf, 2 days; ring-hydroxylation at carbon adjacent to ring nitrogen (isomer 1)
T2 construct: full-length ORF in pEAQ-HT-DEST1, transiently produced in Nicotiana benthamiana leaves
T2 sequence (A0A3G4RHW9 entry or part of it): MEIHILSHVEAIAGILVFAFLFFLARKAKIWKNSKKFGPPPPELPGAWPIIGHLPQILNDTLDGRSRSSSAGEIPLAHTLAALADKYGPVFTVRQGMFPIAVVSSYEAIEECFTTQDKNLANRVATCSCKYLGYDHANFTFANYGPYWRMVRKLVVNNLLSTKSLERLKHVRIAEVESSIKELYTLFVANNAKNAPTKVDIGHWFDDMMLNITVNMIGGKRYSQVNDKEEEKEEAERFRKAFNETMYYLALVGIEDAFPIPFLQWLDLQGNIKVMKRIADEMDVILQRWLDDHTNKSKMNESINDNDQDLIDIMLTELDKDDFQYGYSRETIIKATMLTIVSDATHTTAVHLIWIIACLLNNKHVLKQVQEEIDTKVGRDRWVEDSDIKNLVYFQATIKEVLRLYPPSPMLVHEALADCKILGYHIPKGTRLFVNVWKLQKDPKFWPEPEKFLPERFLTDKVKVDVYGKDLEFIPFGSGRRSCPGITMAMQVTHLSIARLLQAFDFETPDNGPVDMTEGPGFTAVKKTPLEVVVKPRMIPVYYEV

T1 sequence (A0A3G4RHX1 entry or part of it): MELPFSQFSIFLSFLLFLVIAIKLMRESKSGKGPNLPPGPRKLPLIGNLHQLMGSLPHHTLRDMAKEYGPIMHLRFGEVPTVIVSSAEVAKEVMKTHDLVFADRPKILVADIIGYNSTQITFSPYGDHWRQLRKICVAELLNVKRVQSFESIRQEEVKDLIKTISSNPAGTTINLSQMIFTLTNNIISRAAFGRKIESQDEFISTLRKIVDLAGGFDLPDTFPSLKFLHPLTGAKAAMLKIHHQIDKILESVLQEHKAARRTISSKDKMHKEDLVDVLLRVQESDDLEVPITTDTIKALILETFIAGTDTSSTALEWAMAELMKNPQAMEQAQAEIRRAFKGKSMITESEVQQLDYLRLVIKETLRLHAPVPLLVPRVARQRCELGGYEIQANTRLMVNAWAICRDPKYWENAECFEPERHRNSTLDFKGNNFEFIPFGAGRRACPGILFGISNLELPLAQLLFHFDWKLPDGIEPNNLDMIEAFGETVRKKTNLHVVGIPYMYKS

SMILES	transient expression in N. benthamiana leaves, UHPLC/HRMS of products ([1]; ring-hydroxylation next to the esterified carbon (isomer 2))	transient expression in N. benthamiana leaves, UHPLC/HRMS of products [2]	transient expression in N. benthamiana leaves, UHPLC/HRMS of products ([1]; N-demethylation to tigloyl norpseudotropine, then ring-hydroxylation (isomer 2))
C/C=C(\C)C(=O)O[C@@H]1C[C@H]2CC[C@@H](C1)N2 [compound 21, tigloyl norpseudotropine]	producing AbP450-5021 alone using either tigloyl pseudotropine or tigloyl norpseudotropine as substrate	Assays with AbP450-116623 alone and N-demethylated tigloyl norpseudotropine as substrate yielded tigloyl hydroxynorpseudotropine	
C/C=C(\C)C(=O)OC1CC2CCC(C1)N2C (stereo not drawn) [compound 6, tigloyl pseudotropine]			producing AbP450-5021 alone using either tigloyl pseudotropine or tigloyl norpseudotropine as substrate
